Measurements from patent US11999727B2 (Tango Therapeutics, Inc., priority 2020, dated 2024).

Assays:
[1] = system: HAP1 MTAP-intact cell line; assay: SDMA in-cell western assay, HAP1 MTAP-intact; format: cell-based; settings: Homo sapiens, HAP1, SDMA in-cell western, HAP1 MTAP-intact; read-out: MTAP HAP1 intact IC50
How it was run: (§1)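 IC50 values come from SDMA signal quantified by in-cell western in two HAP1 lines, one with native MTAP levels and one lacking MTAP.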

PRMT5 [2] = target: T1, PRMT5 (Homo sapiens, UniProt O14744); assay: PRMT5 biochemical IC50 assay with no cofactor; settings: PRMT5, no cofactor; read-out: No Cofactor/rel IC50
T1 construct: purchased Viva (custom protein)
T1 sequence (O14744 whole entry): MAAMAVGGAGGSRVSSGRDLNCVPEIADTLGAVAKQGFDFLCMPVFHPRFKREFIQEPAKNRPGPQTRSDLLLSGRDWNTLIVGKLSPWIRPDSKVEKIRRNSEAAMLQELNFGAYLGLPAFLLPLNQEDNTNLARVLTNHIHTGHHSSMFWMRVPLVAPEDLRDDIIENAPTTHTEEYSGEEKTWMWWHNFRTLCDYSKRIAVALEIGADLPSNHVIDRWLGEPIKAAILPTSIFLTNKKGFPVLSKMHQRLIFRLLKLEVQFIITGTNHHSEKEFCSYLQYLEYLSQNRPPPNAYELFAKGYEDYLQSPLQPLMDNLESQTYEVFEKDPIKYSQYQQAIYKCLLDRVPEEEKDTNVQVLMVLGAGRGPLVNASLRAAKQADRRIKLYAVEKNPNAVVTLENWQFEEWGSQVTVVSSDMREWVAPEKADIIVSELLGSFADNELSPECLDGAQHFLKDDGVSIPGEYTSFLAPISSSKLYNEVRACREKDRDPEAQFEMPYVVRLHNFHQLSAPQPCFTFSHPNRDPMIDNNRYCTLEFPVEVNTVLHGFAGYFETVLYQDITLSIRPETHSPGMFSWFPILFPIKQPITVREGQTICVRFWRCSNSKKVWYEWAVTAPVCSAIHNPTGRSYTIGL
T1 sequence (Q9BQA1 whole entry partner): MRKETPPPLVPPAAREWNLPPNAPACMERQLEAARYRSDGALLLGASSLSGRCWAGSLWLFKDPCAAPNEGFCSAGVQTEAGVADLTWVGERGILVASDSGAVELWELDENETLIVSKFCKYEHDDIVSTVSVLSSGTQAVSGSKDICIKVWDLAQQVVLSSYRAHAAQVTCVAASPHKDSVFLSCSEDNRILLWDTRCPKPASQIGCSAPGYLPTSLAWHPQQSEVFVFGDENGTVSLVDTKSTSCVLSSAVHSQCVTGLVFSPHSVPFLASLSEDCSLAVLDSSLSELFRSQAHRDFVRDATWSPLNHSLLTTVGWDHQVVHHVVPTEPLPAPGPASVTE
Excerpt: Table 1 indicates IC50 values (μM) against PRMT5 for exemplary compounds in the presence of SAM as cofactor, with no cofactor, and with MTA as cofactor, respectively (columns 4-6). […] Ki values can be calculated from the IC50 values as described in the Examples section. As detailed in the Examples section, for the assay performed in the presence of SAM, IC50=Ki×1.5 (Ki=IC50/1.5).

PRMT5 [3] = target: T1, PRMT5; assay: PRMT5 biochemical IC50 assay with MTA as cofactor; settings: PRMT5, MTA as cofactor; read-out: MTA IC50
[4] = system: HAP1 MTAP-deleted cell line; assay: SDMA in-cell western assay, HAP1 MTAP-deleted; format: cell-based; settings: for IC50: Homo sapiens, HAP1, SDMA in-cell western, HAP1 MTAP-deleted; for MTAP intact/deleted ratio: SDMA in-cell western
How it was run: as §1

[5] = system: HAP1 MTAP-deleted cell line; assay: Viability assay, MTAP-deleted cell line; format: cell-based; settings: Homo sapiens, HAP1, viability assay, read-out: HAP1 MTAP deleted viability
Excerpt: Table 1 additionally indicates IC50 values in a viability assay for the MTAP-deleted cell line (column 10), indicating the effect of treatment with compound on cell survival.

PRMT5 [6] = target: T1, PRMT5; assay: PRMT5 biochemical IC50 assay with SAM as cofactor; settings: PRMT5, SAM as cofactor; read-out: SAM IC50
[7] = read-out: HAP1 MTAP deleted IC50
[8] = IC50 ratio HAP1 MTAP-intact / HAP1 MTAP-deleted
[9] = read-out: HAP 1 MTAP deleted IC50

Structure (SMILES) | IC50 [1] [µM] | IC50 (PRMT5 [2]) [µM] | IC50 (PRMT5 [3]) [µM] | IC50 [4, 7] [µM] | MTAP intact/deleted ratio [4, 8] | IC50 ([5]; MTAP-deleted cell line) [µM] | IC50 (PRMT5 [6]) [µM] | IC50 ([5]; HAP1 MTAP-deleted) [µM] | IC50 [4, 9] [µM] | MTAP intact/deleted ratio ([4]; IC50 ratio HAP1 MTAP-intact vs HAP1 MTAP-deleted)
NC(=O)c1cncc(NC(=O)C(=O)N2CCC3(CCOCC3)CC2)c1 [Compound 191, 5-[[2-(3-Oxa-9-azaspiro[5.5]undecan-9-yl)-2-oxo-acetyl]amino]pyridine-3-carboxamide] | > 1 | > 0.5 | 0.05 to 0.5 | > 1 | C (an IC50 ratio of less than 3 fold) | > 10 | > 0.5 | – | – | –
NC(=O)c1cncc(NC(=O)C(=O)N2CCC3(CC2)CCS(=O)(=O)CC3)c1 [Compound 195, 5-(2-(3,3-Dioxido-3-thia-9-azaspiro[5.5]undecan-9-yl)-2-oxoacetamido)nicotinamide] | > 1 | > 0.5 | 0.05 to 0.5 | > 1 | C (an IC50 ratio of less than 3 fold) | > 10 | > 0.5 | – | – | –
NC(=O)c1cncc(NC(=O)C(=O)N2CCC3(CCCCC3)CC2)c1 [Compound 203, 5-[[2-(3-Azaspiro[5.5]undecan-3-yl)-2-oxo-acetyl]amino]pyridine-3-carboxamide] | > 1 | > 0.5 | < 0.05 | 0.1 to 1 | A (an IC50 ratio greater than or equal to 10 fold) | > 10 | 0.05 to 0.5 | – | – | –
Cc1cc(NC(=O)C(=O)N2CC(C)CCC2C2CNC(=O)C2)cnc1N (stereo not drawn) [Compound 210, N-(6-amino-5-methylpyridin-3-yl)-2-(5-methyl-2-(5-oxopyrrolidin-3-yl)piperidin-1-yl)-2-oxoacetamide] | > 1 | 0.05 to 0.5 | 0.05 to 0.5 | > 1 | B (an IC50 ratio greater than or equal to 3 fold but lower than 10 fold) | > 10 | > 0.5 | – | – | –
Cc1cc(NC(=O)C(=O)N2CCCCC2C23CC(C(F)(F)F)(C2)C3)cnc1N (stereo not drawn) [Compound 217, N-(6-amino-5-methyl-3-pyridyl)-2-oxo-2-[2-[3-(trifluoromethyl)-1-bicyclo[1.1.1]pentanyl]-1-piperidyl]acetamide] | > 1 | > 0.5 | 0.05 to 0.5 | > 1 | B (an IC50 ratio greater than or equal to 3 fold but lower than 10 fold) | > 10 | 0.05 to 0.5 | – | – | –
CCC(C)C1CCCCN1C(=O)C(=O)Nc1cnc(N)c(C)c1 (stereo not drawn) [Compound 232, N-(6-amino-5-methyl-3-pyridyl)-2-oxo-2-(2-sec-butyl-1-piperidyl)acetamide] | > 1 | > 0.5 | 0.05 to 0.5 | > 1 | B (an IC50 ratio greater than or equal to 3 fold but lower than 10 fold) | > 10 | > 0.5 | – | – | –
NC(=O)c1cncc(NC(=O)C(=O)N2CCCCC2C2CCCC2)c1 (stereo not drawn) [Compound 240, 5-(2-(2-cyclopentylpiperidin-1-yl)-2-oxoacetamido)nicotinamide] | > 1 | 0.05 to 0.5 | < 0.05 | 0.1 to 1 | A (an IC50 ratio greater than or equal to 10 fold) | > 10 | 0.05 to 0.5 | – | – | –
C[C@@H]1CC[C@@H](c2ccc(F)cc2)N(C(=O)C(=O)Nc2cncc(C(N)=O)c2)C1 [Compound 302, 5-[[2-[(2S,5R)-2-(4-fluorophenyl)-5-methyl-1-piperidyl]-2-oxo-acetyl]amino]pyridine-3-carboxamide] | > 1 | > 0.5 | > 0.5 | > 1 | C (an IC50 ratio of less than 3 fold) | > 10 | > 0.5 | – | – | –
CNc1ccc([C@H]2CC[C@H](C)CN2C(=O)C(=O)Nc2cncc(C(N)=O)c2)cc1 [Compound 438, 5-[[2-[(2R,5S)-5-methyl-2-[4-(methylamino)phenyl]-1-piperidyl]-2-oxo-acetyl]amino]pyridine-3-carboxamide] | > 1 | < 0.05 | < 0.05 | < 0.1 | A (an IC50 ratio greater than or equal to 10 fold) | < 1 | < 0.05 | – | – | –
Cc1cc(NC(=O)C(=O)N2CC3(CCC2c2ccc(F)cc2)CC3)cnc1N (stereo not drawn) [Compound 753] | > 1 | 0.05 to 0.5 | < 0.05 | 0.1 to 1 | A (an IC50 ratio greater than or equal to 10 fold) | – | 0.05 to 0.5 | 1 to 10 | – | –
NC(=O)c1cncc(NC(=O)C(=O)N2CC3(CCC2c2ccc(F)cc2)CC3)c1 (stereo not drawn) [Compound 776, 5-(2-(6-(4-fluorophenyl)-5-azaspiro[2.5]octan-5-yl)-2-oxoacetamido)nicotinamide] | > 1 | 0.05 to 0.5 | 0.05 to 0.5 | 0.1 to 1 | A (an IC50 ratio greater than or equal to 10 fold) | – | 0.05 to 0.5 | 1 to 10 | – | –
CCc1cc(NC(=O)C(=O)N2C[C@@H](C)CC[C@@H]2c2ccc(F)cc2)cnc1C [Compound 779, N-(5-ethyl-6-methyl-3-pyridyl)-2-[(2R,5S)-2-(4-fluorophenyl)-5-methyl-1-piperidyl]-2-oxo-acetamide] | > 1 | 0.05 to 0.5 | < 0.05 | 0.1 to 1 | A (an IC50 ratio greater than or equal to 10 fold) | – | 0.05 to 0.5 | 1 to 10 | – | –
COc1cc(NC(=O)C(=O)N2C[C@@H](C)CC[C@@H]2c2ccc(F)cc2)cnc1N [Compound 979, N-(6-amino-5-methoxy-3-pyridyl)-2-[(2R,5S)-2-(4-fluorophenyl)-5-methyl-1-piperidyl]-2-oxo-acetamide] | > 1 | 0.05 to 0.5 | < 0.05 | – | A (an IC50 ratio greater than or equal to 10 fold) | 1 to 10 | 0.05 to 0.5 | – | 0.1 to 1 | –
C[C@H]1CC[C@H](c2ccc(F)cc2)N(C(=O)C(=O)Nc2cnc(N)c(C3CC3)c2)C1 [Compound 989, N-(6-amino-5-cyclopropyl-3-pyridyl)-2-[(2R,5S)-2-(4-fluorophenyl)-5-methyl-1-piperidyl]-2-oxo-acetamide] | > 1 | 0.05 to 0.5 | < 0.05 | – | A (an IC50 ratio greater than or equal to 10 fold) | < 1 | 0.05 to 0.5 | – | < 0.1 | –
CC(C)c1cc(NC(=O)C(=O)N2C[C@@H](C)CC[C@@H]2c2ccc(F)cc2)cnc1N [Compound 993, N-(6-amino-5-isopropyl-3-pyridyl)-2-[(2R,5S)-2-(4-fluorophenyl)-5-methyl-1-piperidyl]-2-oxo-acetamide] | > 1 | < 0.05 | < 0.05 | – | A (an IC50 ratio greater than or equal to 10 fold) | 1 to 10 | 0.05 to 0.5 | – | 0.1 to 1 | –
C[C@H]1CC[C@H](c2ccc(F)cc2)N(C(=O)C(=O)Nc2cnc(N)c(OC(F)F)c2)C1 [Compound 1026, N-[6-amino-5-(difluoromethoxy)-3-pyridyl]-2-[(2R,5S)-2-(4-fluorophenyl)-5-methyl-1-piperidyl]-2-oxo-acetamide] | > 1 | 0.05 to 0.5 | < 0.05 | – | A (an IC50 ratio greater than or equal to 10 fold) | 1 to 10 | 0.05 to 0.5 | – | 0.1 to 1 | –
C[C@H]1CC[C@H](c2ccc(F)cc2)N(C(=O)C(=O)Nc2cnc(OC(F)(F)F)c(C(N)=O)c2)C1 [Compound 1039, 5-[[2-[(2R,5S)-2-(4-fluorophenyl)-5-methyl-1-piperidyl]-2-oxo-acetyl]amino]-2-(trifluoromethoxy)pyridine-3-carboxamide] | 0.1 to 1 | 0.05 to 0.5 | 0.05 to 0.5 | – | C (an IC50 ratio of less than 3 fold) | 1 to 10 | 0.05 to 0.5 | – | 0.1 to 1 | –
CCc1cc(NC(=O)C(=O)N2C[C@@H](C)CC[C@@H]2c2cccc([C@@H]3CCCN(C)C3)c2)cnc1N [Compound 1090, N-(6-amino-5-ethyl-3-pyridyl)-2-oxo-2-[(2R,5S)-5-methyl-2-[3-[(3S)-1-methyl-3-piperidyl]phenyl]-1-piperidyl]acetamide] | 0.1 to 1 | < 0.05 | < 0.05 | < 0.1 | – | < 1 | < 0.05 | – | – | A (an IC50 ratio greater than or equal to 10 fold)
